Experimental data: BindingDB's records for doi:10.1021/jm9800595 (Purdue University, 1998)

target: T1, Gag-Pol polyprotein [588-1027]/[588-1147] (Human immunodeficiency virus 1, UniProt P04585); test: HIV-1 RT Assay; settings: pH 7.9
T1 construct: 588-1027; 588-1147

With `CC1(C)OC(=O)c2cc(C(=CCCBr)c3cc(Cl)c4c(c3)C(=O)OC(C)(C)O4)cc(Cl)c2O1` [6-[4-bromo-1-(8-chloro-2,2-dimethyl-4-oxo-2,4-dihydro-1,3-benzodioxin-6-yl)but-1-en-1-yl]-8-chloro-2,2-dimethyl-2,4-dihydro-1,3-benzodioxin-4-one] as the compound, how does the IC50 read?
Its IC50 is greater than 100 µM.

For `CC1(C)OC(=O)c2cc(C(=CCCO)c3cc(Cl)c4c(c3)C(=O)OC(C)(C)O4)cc(Cl)c2O1` [8-chloro-6-[1-(8-chloro-2,2-dimethyl-4-oxo-2,4-dihydro-1,3-benzodioxin-6-yl)-4-hydroxybut-1-en-1-yl]-2,2-dimethyl-2,4-dihydro-1,3-benzodioxin-4-one], which IC50 is on record?
The IC50 was greater than 100 µM.

`COC(=O)c1cc(C(=CCCCC(=O)O)c2cc(Cl)c(OC)c(C(=O)OC)c2)cc(Cl)c1OC` [Alkenyldiarylmethane (ADAM) 25] was tested. Which IC50 did it give?
The IC50 was greater than 100 µM.

With `C=C(c1cc(Br)c(OC)c(C(=O)OC)c1)c1cc(Br)c(OC)c(C(=O)OC)c1` [methyl 3-bromo-5-{1-[3-bromo-4-methoxy-5-(methoxycarbonyl)phenyl]ethenyl}-2-methoxybenzoate] as the compound, how does the IC50 read?
Its IC50 is greater than 100 µM.

`COC=C(c1cc(Br)c(OC)c(C(=O)OC)c1)c1cc(Br)c(OC)c(C(=O)OC)c1` [Alkenyldiarylmethane (ADAM) 5] was tested. Which IC50 did it give?
Its IC50 is greater than 100 µM.

With `COc1c(Cl)cc(C(=CCCCC(=O)O)c2cc(Cl)c(OC)c(C(=O)O)c2)cc1C(=O)O` [Alkenyldiarylmethane (ADAM) 26] as the compound, how does the IC50 read?
The IC50 was greater than 100 µM.

With `COC(=O)c1cc(C(=CC(=O)O)c2cc(Cl)c(OC)c(C(=O)OC)c2)cc(Cl)c1OC` [3,3-Dichloro-4,4-dimethoxy-5,5-bis(methoxycarbonyl)-3,3-diphenylpropenoic Acid] as the compound, how does the IC50 read?
The IC50 was greater than 100 µM.

`COC(=O)c1cc(C(=CC(=O)OC(C)(C)C)c2cc(Cl)c(OC)c(C(=O)OC)c2)cc(Cl)c1OC` [methyl 5-[3-(tert-butoxy)-1-[3-chloro-4-methoxy-5-(methoxycarbonyl)phenyl]-3-oxoprop-1-en-1-yl]-3-chloro-2-methoxybenzoate] was tested. Which IC50 did it give?
The IC50 was greater than 100 µM.

With `COc1c(Cl)cc(C(=CCC(=O)O)c2cc(Cl)c(OC)c(C(=O)O)c2)cc1C(=O)O` [Alkenyldiarylmethane (ADAM) 27] as the compound, how does the IC50 read?
Its IC50 is greater than 100 µM.

With `COC(=O)c1cc(C(=CCCO)c2cc(Cl)c(OC)c(C(=O)OC)c2)cc(Cl)c1OC` [methyl 3-chloro-5-{1-[3-chloro-4-methoxy-5-(methoxycarbonyl)phenyl]-4-hydroxybut-1-en-1-yl}-2-methoxybenzoate] as the compound, how does the IC50 read?
The IC50 was greater than 100 µM.
